In brackets after ≈: the same amount, converted by molar mass. Marks after values point to notes of the source that are not given here.
What was measured:
[1] = system: Aspergillus niger ATCC 16404; assay: MIC determination (broth micro-dilution); type: cell-based; settings: ATCC16404
Protocol: (§1) Before analysis, compounds 5a–f were dissolved in 96% ethanol in a concentration of 2 mg/ml as stock solutions. Inoculums were prepared with fresh cultures of microbial strains, cultured on tryptic-soy agar or Sabouraud 2% (m/v) dextrose agar for 18 h (48–72 h for fungi) at 30 °C with physiological saline containing approximately […]. Inoculum density (0.5 McFarland units) was adjusted with a bio Mériex (France) densitometer. Minimum inhibitory concentration (MIC) was determined by the twofold micro-dilution method in Mu¨ller–Hinton broth for bacterial strains and RPMI 1640 + 2% m/v dextrose for fungi according to the EUCAST recommendations in a sterile 96-well flat-bottom plastic tissue culture plate. MIC was determined using a linear regression curve after incubation of compounds and reading the optical density at 570 nm using an iEMS microplate reader. […] All tests were performed in triplicate and expressed as the mean.

[2] = system: Bacillus cereus ATCC 11778; assay: MIC determination (broth micro-dilution); type: cell-based; settings: ATCC11778
Protocol: as §1

[3] = system: Bacillus subtilis ATCC 6633; assay: MIC determination (broth micro-dilution); type: cell-based; settings: ATCC6633
Protocol: as §1

[4] = system: Burkholderia caepacia ATCC 25416; assay: MIC determination (broth micro-dilution); type: cell-based; settings: ATCC25416
Protocol: as §1

[5] = system: Candida albicans ATCC 10231; assay: MIC determination (broth micro-dilution); type: cell-based; settings: ATCC10231
Protocol: as §1

[6] = system: Candida albicans ATCC 90028; assay: MIC determination (broth micro-dilution); type: cell-based; settings: ATCC90028
Protocol: as §1

Candida kefyr ATCC 2512 [7] = assay: MIC determination (broth micro-dilution); type: cell-based; settings: Kluyveromyces marxianus, ATCC2512
Protocol: as §1

[8] = system: Candida krusei ATCC 14243; assay: MIC determination (broth micro-dilution); type: cell-based; settings: Pichia kudriavzevii, ATCC14243
Protocol: as §1

[9] = system: Candida parapsylosis ATCC 22019; assay: MIC determination (broth micro-dilution); type: cell-based; settings: ATCC22019
Protocol: as §1

[10] = system: Candida tropicalis ATCC 750; assay: MIC determination (broth micro-dilution); type: cell-based; settings: ATCC750
Protocol: as §1

[11] = system: Enterococcus faecalis ATCC 29212; assay: MIC determination (broth micro-dilution); type: cell-based; settings: ATCC29212
Protocol: as §1

[12] = system: Enterococcus hyrae ATCC 8043; assay: MIC determination (broth micro-dilution); type: cell-based; settings: ATCC8043
Protocol: as §1

[13] = system: Escherichia coli ATCC 10536; assay: MIC determination (broth micro-dilution); type: cell-based; settings: ATCC10536
Protocol: as §1

[14] = system: Escherichia coli ATCC 8739; assay: MIC determination (broth micro-dilution); type: cell-based; settings: ATCC8739
Protocol: as §1

[15] = system: Issatchenkia orientalis Kudrjanzev ATCC 6258; assay: MIC determination (broth micro-dilution); type: cell-based; settings: Pichia kudriavzevii, ATCC6258
Protocol: as §1

[16] = system: Kocuria rhizophila ATCC 9341; assay: MIC determination (broth micro-dilution); type: cell-based; settings: ATCC9341
Protocol: as §1

[17] = system: Pseudomonas aeruginosa ATCC 27853; assay: MIC determination (broth micro-dilution); type: cell-based; settings: ATCC27853
Protocol: as §1

[18] = system: Pseudomonas aeruginosa ATCC 9027; assay: MIC determination (broth micro-dilution); type: cell-based; settings: ATCC9027
Protocol: as §1

[19] = system: Staphylococcus aureus ATCC 25213; assay: MIC determination (broth micro-dilution); type: cell-based; settings: ATCC25213
Protocol: as §1

[20] = system: Staphylococcus aureus ATCC 25923; assay: MIC determination (broth micro-dilution); type: cell-based; settings: ATCC25923
Protocol: as §1

[21] = system: Staphylococcus aureus ATCC 6538; assay: MIC determination (broth micro-dilution); type: cell-based; settings: ATCC6538
Protocol: as §1

[22] = system: Candida albicans ATCC 10231; assay: Minimum biofilm eradication assay; type: cell-based; settings: ATCC10231, 48 h, read-out: MBEC
Protocol: (§2) We tested the susceptibility of different bacterial and yeast strains to compounds 5a–f by determining the minimum biofilm eradication concentration (MBEC). The test was performed in a sterile 96-well flat-bottom plastic tissue culture plate (TPP, Switzerland). Each well was filled with 100 µl of bacterial (10^7 CFUs/ml) or yeast (5 × 10^6 CFUs/ml) suspension. When the possibility of inhibition of yeast biofilm formation was tested, the wells were pre-treated with FBS (250 µl per well). Negative controls contained broth only. Positive controls were performed using standard antibacterial and antifungal drugs gentamycin and amphotericin B, respectively. The plates were covered and incubated aerobically for 24 h (bacteria) or 48 h (yeast) at 37 °C. Following the incubation period, each well was aspirated and washed three times with 250 µl of PBS and vigorously shaken in order to remove all non-adherent bacteria/yeast. The remaining attached cells were fixed with methanol (15 min) and the plates were left to dry overnight. The formed biofilm was stained with crystal violet (1%, 5 min). Excess stain was rinsed by placing the plate under running tap water and the plates were left to dry for 24 h. Adherent cells were resolubilized with acetic acid (33%, v/v). The optical density of each well was measured at 570 nm using a Multiscan plate reader. The MBEC value represents the lowest compound dilution at which microorganisms fail to grow.

[23] = system: Candida albicans ATCC 90028; assay: Minimum biofilm eradication assay; type: cell-based; settings: ATCC90028, 48 h, read-out: MBEC
Protocol: as §2

Candida kefyr ATCC 2512 [24] = assay: Minimum biofilm eradication assay; type: cell-based; settings: Kluyveromyces marxianus, ATCC2512, 48 h, read-out: MBEC
Protocol: as §2

[25] = system: Candida krusei ATCC 14243; assay: Minimum biofilm eradication assay; type: cell-based; settings: Pichia kudriavzevii, ATCC14243, 48 h, read-out: MBEC
Protocol: as §2

[26] = system: Candida tropicalis ATCC 750; assay: Minimum biofilm eradication assay; type: cell-based; settings: ATCC750, 48 h, read-out: MBEC
Protocol: as §2

[27] = system: Escherichia coli ATCC 10536; assay: Minimum biofilm eradication assay; type: cell-based
Protocol: as §2

[28] = system: Pseudomonas aeruginosa ATCC 9027; assay: Minimum biofilm eradication assay; type: cell-based
Protocol: as §2

[29] = Interaction with 1,1-diphenyl-2-picrylhydrazyl (DPPH); settings: 100 μΜ
Protocol: To a solution of DPPH in absolute ethanol, an appropriate volume of the tested compound solution (0.1 mM final concentration) dissolved in DMSO was added. Absorbance was recorded at 517 nm after 20 and 60 min at room temperature (Lambda 20 double beam spectrophotometer, Perkin-Elmer, UK). Experiments were repeated at least in triplicate and the standard deviation of absorbance was less than 10% of the mean[10]. NDGA was used under the same experimental conditions as a reference compound.

COc1cc(NC(C)CCCNC(=O)NC(CC(C)C)C(=O)NC(c2ccccc2)c2ccccc2)c2ncccc2c1 (stereo not drawn) [Compound 5a, N-(diphenylmethyl)-2-[({4-[(6-methoxyquinolin-8-yl)amino]pentyl}carbamoyl)amino]-4-methylpentanamide]
MIC [1]: > 100 µg/mL | MIC [2]: 70 µg/mL (≈ 120 µM) | MIC [3]: 50 µg/mL (≈ 85.9 µM) | MIC [4]: 65 µg/mL (≈ 112 µM) | MIC [5]: > 100 µg/mL | MIC [6]: > 100 µg/mL | MIC (Candida kefyr ATCC 2512 [7]): > 100 µg/mL | MIC [8]: > 100 µg/mL | MIC [9]: > 100 µg/mL | MIC [10]: > 100 µg/mL | MIC [11]: > 100 µg/mL | MIC [12]: > 100 µg/mL | MIC [13]: > 100 µg/mL | MIC [14]: > 100 µg/mL | MIC [15]: > 100 µg/mL | MIC [16]: 25 µg/mL (≈ 43 µM) | MIC [17]: 25 µg/mL (≈ 43 µM) | MIC [18]: 60 µg/mL (≈ 103 µM) | MIC [19]: 6.5 µg/mL (≈ 11.2 µM) | MIC [20]: 15 µg/mL (≈ 25.8 µM) | MIC [21]: 12.5 µg/mL (≈ 21.5 µM) | minimal effective concentration [22]: > 100 µg/mL | minimal effective concentration [23]: 25 µg/mL | minimal effective concentration (Candida kefyr ATCC 2512 [24]): > 100 µg/mL | minimal effective concentration [25]: > 100 µg/mL | minimal effective concentration [26]: > 100 µg/mL | MBEC [27]: 6.25 µg/mL | MBEC [28]: 60 µg/mL | DPPH-reducing ability 20 min [29]: 6^b % | DPPH-reducing ability 60 min [29]: 5^b %

COc1cc(NC(C)CCCNC(=O)NC(C(=O)N(C)C(c2ccccc2)c2ccccc2)c2ccccc2)c2ncccc2c1 (stereo not drawn) [Compound 5b, N-(diphenylmethyl)-2-[({4-[(6-methoxyquinolin-8-yl)amino]pentyl}carbamoyl)amino]-N-methyl-2-phenylacetamide]
MIC [1]: > 100 µg/mL | MIC [2]: > 100 µg/mL | MIC [3]: > 100 µg/mL | MIC [4]: > 100 µg/mL | MIC [5]: > 100 µg/mL | MIC [6]: > 100 µg/mL | MIC (Candida kefyr ATCC 2512 [7]): > 100 µg/mL | MIC [8]: > 100 µg/mL | MIC [9]: > 100 µg/mL | MIC [10]: > 100 µg/mL | MIC [11]: > 100 µg/mL | MIC [12]: > 100 µg/mL | MIC [13]: > 100 µg/mL | MIC [14]: > 100 µg/mL | MIC [15]: > 100 µg/mL | MIC [16]: > 100 µg/mL | MIC [17]: > 100 µg/mL | MIC [18]: > 100 µg/mL | MIC [19]: 60 µg/mL (≈ 97.4 µM) | MIC [20]: 65 µg/mL (≈ 106 µM) | MIC [21]: > 100 µg/mL | minimal effective concentration [22]: 50 µg/mL | minimal effective concentration [23]: 50 µg/mL | minimal effective concentration (Candida kefyr ATCC 2512 [24]): > 100 µg/mL | minimal effective concentration [25]: > 100 µg/mL | minimal effective concentration [26]: > 100 µg/mL | MBEC [27]: 12.5 µg/mL | MBEC [28]: >100 µg/mL | DPPH-reducing ability 20 min [29]: 7^b % | DPPH-reducing ability 60 min [29]: 5^b %

From article PMC6021035, “Insights into biological activity of ureidoamides with primaquine and amino acid moieties” (Journal of Enzyme Inhibition and Medicinal Chemistry, 2018)
